In the experiment the target is T1, HDAC 6 (Homo sapiens, UniProt Q9UBN7).
T1 sequence (Q9UBN7 1-1215): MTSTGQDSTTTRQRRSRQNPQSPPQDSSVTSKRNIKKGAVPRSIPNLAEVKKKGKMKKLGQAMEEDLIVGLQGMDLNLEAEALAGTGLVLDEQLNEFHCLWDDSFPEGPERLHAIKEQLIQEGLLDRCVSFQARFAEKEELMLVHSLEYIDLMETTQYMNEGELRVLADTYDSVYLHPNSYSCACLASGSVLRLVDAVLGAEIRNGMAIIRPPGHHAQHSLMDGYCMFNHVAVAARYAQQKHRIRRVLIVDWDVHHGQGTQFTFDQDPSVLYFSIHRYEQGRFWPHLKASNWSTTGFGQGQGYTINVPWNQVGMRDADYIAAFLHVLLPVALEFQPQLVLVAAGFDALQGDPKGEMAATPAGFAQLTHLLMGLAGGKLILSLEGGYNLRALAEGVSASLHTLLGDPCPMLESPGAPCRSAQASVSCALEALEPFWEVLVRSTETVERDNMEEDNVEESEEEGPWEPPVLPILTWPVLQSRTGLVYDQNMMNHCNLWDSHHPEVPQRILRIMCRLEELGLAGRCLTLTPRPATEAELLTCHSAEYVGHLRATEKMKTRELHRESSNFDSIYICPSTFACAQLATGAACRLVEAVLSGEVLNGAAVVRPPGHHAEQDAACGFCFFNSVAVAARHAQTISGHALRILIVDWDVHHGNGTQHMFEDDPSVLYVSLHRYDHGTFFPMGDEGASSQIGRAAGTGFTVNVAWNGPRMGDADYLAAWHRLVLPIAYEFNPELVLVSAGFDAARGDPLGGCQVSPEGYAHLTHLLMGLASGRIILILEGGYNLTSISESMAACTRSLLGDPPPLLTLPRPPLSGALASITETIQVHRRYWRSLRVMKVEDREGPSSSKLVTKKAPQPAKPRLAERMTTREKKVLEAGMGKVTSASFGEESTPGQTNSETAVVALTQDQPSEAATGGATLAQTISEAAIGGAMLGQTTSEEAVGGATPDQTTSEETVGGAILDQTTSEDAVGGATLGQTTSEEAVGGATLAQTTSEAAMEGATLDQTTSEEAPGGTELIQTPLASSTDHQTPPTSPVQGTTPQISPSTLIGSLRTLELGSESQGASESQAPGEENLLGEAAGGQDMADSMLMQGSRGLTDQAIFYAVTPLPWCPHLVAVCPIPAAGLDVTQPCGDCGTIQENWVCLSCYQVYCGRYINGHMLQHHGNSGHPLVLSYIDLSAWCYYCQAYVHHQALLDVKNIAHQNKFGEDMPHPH
As to the kind of experiment: Caliper HDAC inhibitor profiling assay (microfluidic mobility-shift), HDAC 6. Format: biochemical. The conditions noted are these: 1 hour at room temperature, read-out: IC50 (μM) HDAC6. As to the method: The activity of the compounds of the invention against HDAC 3 (Class I) and HDAC 6 (Class II) can be determined using the Caliper Life Sciences HDAC inhibitor profiling assay, which utilises microfluidic mobility-shift detection.
Reaction buffer: 25 mM Tris/Cl, pH 8.0, 137 mM NaCl, 2.7 mM KCl, 1 mM MgCl2, 0.1 mg/ml BSA (fatty acid free).
Stop Buffer: 100 mM HEPES, pH 7.5, 10 mM EDTA, 0.04% Brij-35, 0.25% CR-3, and 2.5 μM Trichostatin A.
Stopped reactions were assembled in microtiter plate wells by adding 1 μL of the inhibitor compound in DMSO, 15 μL 2× Enzyme, and 15 μL 2× peptide. The reactions were incubated for 1 hour at room temperature, stopped with the addition of 45 μL Stop Solution, and read on the LabChip EZ Reader®. The curves were fit with sigmoidal dose response algorithm using GraphPad Prism.

What is called IC50 is the concentration that inhibits the measured activity by half. Regarding `C=C1CN(Cc2ccc(C(=O)Nc3ccccc3N)cc2)C(CC(=O)O)c2ccccc21` (centres unmarked) [Example 9, [2-(4-{[(2-Aminophenyl)amino]carbonyl}benzyl)-4-methylene-1,2,3,4-tetra hydroisoquinolin-1-yl]acetic acid], the IC50 was over 10 µM. For `C=C1CN(Cc2ccc(C(=O)Nc3ccccc3N)cc2)C(=O)c2ccccc21` [Example 7, N-(2-Aminophenyl)-4-[(4-methylene-1-oxo-3,4-dihydroisoquino-2(1H)-yl)methyl]benzamide], the IC50 was over 10 µM.

The record behind these values is patent US20140135327A1, “N- (2 -AMINOPHENYL) BENZAMIDE DERIVATIVES AS HISTONE DEACETYLASE INHIBITORS” (CANCER RESEARCH TECHNOLOGY LIMITED, priority 2011, published 2014).
